Results on 25 compounds are retold here after patent US20230357099A1, “PYRAZOLO [3,4-B] PYRIDINE-4-CARBOXAMIDE NITRIFICATION INHIBITOR” (EUROCHEM ANTWERPTEN, priority 2020, published 2023).

For one series, the system named is agricultural soils. As to the kind of experiment: In soil nitrification inhibition assay. The settings on record: for inhibition at 50 µM / inhibition at 100 µM: soil; for inhibition at 50 µM: 50 µM of each compound. The procedure: Top layer (0 to 10 cm) soil samples were collected from different fields in Belgium (Merelbeke, Sint-Laureins and Moorslede). Vegetation was removed and samples were taken from different plots. All soil samples were mixed and sieved (mesh size 2.8 mm) to filter large debris and homogenize soil. The soil was stored at 5° C. in plastic containers covered with Saran foil to prevent changes in microbial community composition and to maintain the original soil water content.
Soil water content was determined by drying 20 g soil for ≥ 48 h in a 60° C. oven and measuring weight before and after drying. Based on the soil water content (± 20%), compound solutions were prepared so that addition of 200 µl compound and 200 µl NH4Cl solution would result in a final compound concentration of 50 µM (unless otherwise stated) and a final NH4+ concentration of 10 mM. Per treatment, 5 small pots were filled with 20 g soil. Next, the soil was treated first with the respective compound solution and then with the NH4Cl solution. Per tray, positive (50 µM DMP) and negative controls (DMSO) were included. […] Demineralized water was added to the soil every 2 to 3 days to a soil weight of 20 g. In the end, each sample of 20 g soil was dissolved in 100 ml 1 M KCI and shaken for 1 hour, followed by filtration through Whatmann® paper. The filtrate was used to measure pH, NH4+ and NO3— concentrations. The nitrification percentage was calculated as the ratio of the consumed ammonium in treated soil versus the consumed ammonium in non-treated soil; the nitrification inhibition percentage was calculated as ‘100% - the nitrification percentage’.

For series [1], the system named is ammonia oxidizing archaea. Nature of the series: Abundance of ammonia oxidizing archaea in DMP-treated soil.
For series [2], the system named is agricultural soils (Moorslede and Sint-Laureins). Nature of the series: Greenhouse gas measurements from fertilized soil. The procedure:
Two agricultural soils coming from fields in Moorslede and Sint-Laureins were used. Screw top vials were filled with 10 g soil. Vials were sealed with Parafilm and preincubated at 21° C. in the dark for 5 days. After pre-incubation, vials were ventilated using a fan. Then 100 µL of a 1 mM compound solution (10 % DMSO) was added, immediately followed by the addition of 100 µL 200 mM NH4Cl. Vials were closed gastight and 5 mL synthetic air was added to the headspace using a plastic syringe, followed by the transfer of 5 mL headspace to an evacuated 3 mL exetainer. Vials were incubated at 21° C. in the dark and background NO concentration was noted. At each sampling timepoint, 5 mL synthetic air was added again to the headspace using a plastic syringe, again followed by the transfer of 5 mL headspace to an evacuated 3 mL exetainer. Vials were ventilated and closed again, and new gas samples were transferred to exetainers like before. N2O in the exetainers were measured via gas chromatography (GC-14 B (Schimadzu) equipped with Haysep Q columns (same spec) and an ECD detector, He at c.a. 20 mL min, 70° C.). The CO2 and CH4 concentration in the 3 mL exetainer vials was measured using a GC (Trace-GC, Interscience) equipped with Haysep Q columns (80-100, ⅛″ divided in 2 part 0.25 and 2.0 m connected with a 6 port valve to allow backflush of water vapor) and a FID (CH4) and TCD (CO2). Carrier gas was He c.a. 20 mL/min kept at 90° C. NO concentration was measured directly by connecting a chemiluminescence NO detector (CLD 77 AM, eco physics) directly to the headspace using a needle.

Series [3] concerns ABIL (ammonia-binding liquid inoculum), nitrifying microbial enrichment containing both AOA and AOB. Nature of the series: Nitrification inhibition assay on ABIL (ammonium consumption). It is filed as cell-based. The note with it: for activity at 10 µM: 10 µM compound, structural variants outside formula (I), read-out: Relative nitrification (%) by ABIL treated with 10 µM compound.

Series [4] concerns Nitrososphaera viennensis. Nature of the series: Nitrification inhibition assay on Nitrososphaera viennensis (nitrite, Griess). The note with it: for activity at 2.5 µM: Nitrososphaera viennensis, 2.5 µM compound, structural variants outside formula (I), read-out: Relative nitrification (%) by Nitrososphaera viennensis treated with 2.5 µM compound. It is filed as cell-based, Nitrososphaera viennensis EN76T. In a few lines:
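N. viennensis EN76T cultures in FWM (pH 7.5, NH4Cl-supplemented), 5× concentrated, treated with compounds at 2.5 µM final (0.25% DMSO) and incubated 24 h at 42 °C. Nitrite measured by Griess absorbance at 540 nm against a standard curve. Relative nitrification normalized between DMSO (no compound) and 100 µM PTIO controls.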
For orientation: Griess reagent forms a coloured azo dye with nitrite.

In another series the test system is Aliivibrio fischeri. The format is cell-based. The procedure: Furthermore, a representative subset was tested on Aliivibrio fischeri growth (formerly known as Vibrio fischeri), a bacterium used in the Microtox assay to test toxic substances in different substrates such as (drinking) water, air, soils and sediments.
Two of these variants were also tested on Aliivibrio fischeri to test possible toxicity.

The mark [5] stands for this setting: Soil 2, 7 days, 100 µM of each compound, 6 inhibitors alone and combined with Example 2.
The mark [6] stands for this setting: 168 h, Soil 2, 7 days, 100 µM of each compound, 6 inhibitors alone and combined with Example 2.

The term inhibition denotes the percentage by which the read-out fell short of the control.

Consider `c1nc[nH]n1` [1,2,4-triazole, 1H-1,2,4-triazole], for which the “Nitrification inhibition (%)” value in the series with agricultural soils (setting [5]) is 32%.

As for `S=C1NCCS1` [1,3-thiazolidine-2-thione], in the series with agricultural soils (120 h, Soil 2, 5 days), the inhibition at 50 µM was found to be 59%. Also, in the series with agricultural soils (setting [6]), the inhibition at 100 µM was 46%.

In the case of `N#CN=C(N)N` [DCD, dicyandiamide], the “Nitrification inhibition (%)” value in the series on agricultural soils (setting [5]) worked out at 0%.

For `Cc1cn[nH]c1C` [DMP, 3,4-dimethylpyrazole], the “effect on the presence (abundance) of ammonia oxidizing archaea” value in series [1] is “no inhibiting effect on the presence of archaea”. Also, the inhibition at 50 µM in the series on agricultural soils (72 h, Soil 2, 3 days) was found to be 68%; in the series with agricultural soils (72 h, Soil 3, 3 days) it was 52%; in the series with agricultural soils (168 h, Soil 1, 7 days) it was 88%; with agricultural soils (168 h, Soil 2, 7 days), 14%; in the series with agricultural soils (168 h, Soil 3, 7 days), 0%. In addition, the inhibition at 100 µM with agricultural soils (168 h, Soil 1, 7 days, 100 µM) is 84%; with agricultural soils (168 h, Soil 2, 7 days, 100 µM (Table 2)), 14%; with agricultural soils (setting [6]), 54%; in the series on agricultural soils (168 h, Soil 3, 7 days, 100 µM), 0%. For the same compound, the “Cumulative emission at indicated timepoint [ppb], N2O, 4 h” value is on record as 0 ppb in series [2] (Moorslede soil, N2O) and 0 ppb in series [2] (Sint-Laureins soil, N2O). In addition, the “Cumulative emission at indicated timepoint [ppb], N2O, 24 h” value in series [2] (Moorslede soil, N2O) is 0 ppb; in series [2] (Sint-Laureins soil, N2O), 0 ppb. Besides, the “Cumulative emission at indicated timepoint [ppb], N2O, 48 h” value in series [2] (Moorslede soil, N2O) was determined as 0 ppb; in series [2] (Sint-Laureins soil, N2O) it was 0 ppb. For the same compound, the “Cumulative emission at indicated timepoint [ppb], N2O, 72 h” value in series [2] (Moorslede soil, N2O) turned out to be 0 ppb; in series [2] (Sint-Laureins soil, N2O), 0 ppb. Also, the “Cumulative emission at indicated timepoint [ppb], N2O, 99 h” value is 0 ppb in series [2] (Moorslede soil, N2O) and 0 ppb in series [2] (Sint-Laureins soil, N2O). The “Cumulative emission at indicated timepoint [ppb], NO, 4 h” value in series [2] (Moorslede soil, NO) was found to be 48 ppb; in series [2] (Sint-Laureins soil, NO) it was 26 ppb. The “Cumulative emission at indicated timepoint [ppb], NO, 24 h” value in series [2] (Moorslede soil, NO) came to 49 ppb; in series [2] (Sint-Laureins soil, NO), 59 ppb. The “Cumulative emission at indicated timepoint [ppb], NO, 48 h” value in series [2] (Moorslede soil, NO) is given as 47 ppb; in series [2] (Sint-Laureins soil, NO), 98 ppb. Besides, the “Cumulative emission at indicated timepoint [ppb], NO, 72 h” value was found to be 64 ppb in series [2] (Moorslede soil, NO) and 162 ppb in series [2] (Sint-Laureins soil, NO). Besides, the “Cumulative emission at indicated timepoint [ppb], NO, 99 h” value is recorded as 64 ppb in series [2] (Moorslede soil, NO) and 187 ppb in series [2] (Sint-Laureins soil, NO). In addition, the “Cumulative emission at 215 h [ppb], N2O” value in series [2] (Sint-Laureins soil, N2O, 215 h) worked out at 47 ppb. Further, the “Cumulative emission at 215 h [ppb], NO” value in series [2] (Sint-Laureins soil, NO, 215 h) is on record as 243 ppb.

In the case of `Cc1cn(C(CC(=O)O)C(=O)O)nc1C` (stereo not shown) [DMPSA, 2-(3,4-dimethyl-pyrazol-1-yl)-succinic acid], in the series on agricultural soils (72 h, Soil 2, 3 days), 50 µM produced 47% inhibition. In addition, the inhibition at 100 µM in the series with agricultural soils (setting [6]) turned out to be 44%.

As for `O=S(=O)(Nc1cccc2cn[nH]c12)N1CCCCC1` [Example 149], the activity at 10 µM in series [3] turned out to be 100%. In addition, the activity at 2.5 µM in series [4] was 100%.

For `CCN(CCC#N)Cn1nc(Cl)c2ccccc21` [Example 150], the activity at 10 µM in series [3] was 100%. The activity at 2.5 µM in series [4] worked out at 100%.

For `CCCc1nnc(NCc2cccc3cn[nH]c23)o1` [Example 151], in series [3], the activity at 10 µM came to 100%. Besides, the activity at 2.5 µM in series [4] worked out at 94%.

As for `COC(=O)C1(CNCc2cccc3cn[nH]c23)CCOCC1` [Example 152], the activity at 10 µM in series [3] worked out at 100%. In series [4], the activity at 2.5 µM came to 98%.

With `O=S(=O)(Cc1ccccc1F)Nc1ccc2[nH]ncc2c1` [Example 153], in series [3], the activity at 10 µM stood at 100%. Besides, the activity at 2.5 µM in series [4] was found to be 100%.

As for `COc1ccc(C(O)CNCc2cccc3cn[nH]c23)cc1` (stereo not shown) [Example 154], the activity at 10 µM in series [3] stood at 100%. For the same compound, the activity at 2.5 µM in series [4] was found to be 99%.

Consider `CCCC(O)CNCc1cccc2cn[nH]c12` (stereo not shown) [Example 155], for which, in series [3], the activity at 10 µM came to 100%. Also, the activity at 2.5 µM in series [4] amounted to 100%.

With `CC1CCCCN1C(=O)c1n[nH]c2ccccc12` (stereo not shown) [Example 156], in series [3], the activity at 10 µM came out at 100%. In series [4], the activity at 2.5 µM turned out to be 100%.

Take `CC1(C)CN(C(=O)c2n[nH]c3ccccc23)CC[S+]1[O-]` (stereo not shown) [Example 157]: in series [3], the activity at 10 µM worked out at 100%. Also, the activity at 2.5 µM in series [4] was determined as 94%.

On to `FC(F)(F)c1c[nH]c(C2CCN(Cc3cccc4cn[nH]c34)CC2)n1` [Example 158], for which the activity at 10 µM in series [3] turned out to be 100%. Moreover, in series [4], the activity at 2.5 µM amounted to 100%.

With `CN(C(=O)Nc1ccc2c(cnn2C(F)F)c1)C1CCSC1` (stereo not shown) [Example 159], the activity at 10 µM in series [3] amounted to 100%. Besides, the activity at 2.5 µM in series [4] came to 91%.

Regarding `COc1ccc(N2CC(C(=O)Nc3ccc4[nH]ncc4c3)CC2=O)cc1` (stereo not shown) [Example 160], in series [3], the activity at 10 µM was 100%. In addition, in series [4], the activity at 2.5 µM came out at 100%.

In the case of `O=S(=O)(Nc1ccc2cn[nH]c2c1)c1cccc2ccccc12` [Example 161], the activity at 10 µM in series [3] was 100%. In addition, the activity at 2.5 µM in series [4] is 100%.

For the compound `O=C(Nc1ccc2[nH]ncc2c1)C1(c2ccc(F)cc2)CC1` [Example 162], the activity at 10 µM in series [3] is 100%. Besides, the activity at 2.5 µM in series [4] stood at 100%.

In the case of `CCOc1ccc(CN(CC)C(=O)c2n[nH]c3ccccc23)cc1OC` [Example 163], in series [3], the activity at 10 µM came to 100%. In addition, the activity at 2.5 µM in series [4] came to 99%.

For `COCCN1CCN(Cc2cccc3cn[nH]c23)CC1=O` [Example 164], the activity at 10 µM in series [3] was determined as 100%. In addition, in series [4], the activity at 2.5 µM amounted to 100%.

`O=C(NC1CC1)c1cccc(NC(=O)c2n[nH]c3ccccc23)c1` [Example 165]: the activity at 10 µM in series [3] came out at 100%. Moreover, in series [4], the activity at 2.5 µM turned out to be 100%.

Turning to `CC1(C)N([O])C(c2ccccc2)=[N+]([O-])C1(C)C` [PTIO, 2-phenyl-4,4,5,5-tetramethylimidazoline-1-oxyl 3-oxide], the “inhibition in the ABIL assay” value in series [3] (PTIO at 33 µM) is on record as “does not show inhibition anymore”. For the same compound, the “inhibition in the N. viennensis assay” value in series [4] (PTIO at 25 µM) is “does not show inhibition anymore”.

As for `CC(C)n1ncc2cc(CNc3ccc4[nH]ncc4c3)cnc21` [drawing 170], the “Growth of Aliivibrio fischeri, relative to control without compound (%)” value with Aliivibrio fischeri is 40%.

Consider `N#Cc1nn(CN2CCSCC2)c2ccc(Cl)cc12` [drawing 171], for which the “Growth of Aliivibrio fischeri, relative to control without compound (%)” value in the series on Aliivibrio fischeri was determined as 3%.
